Like-named read-outs stand apart in the source and are kept apart here.

The source of these data is patent US20150087722A1, “TREATMENT FOR BREAST TUMOR CELL METASTASIS” (China Medical University, priority 2012, published 2015).

Assay [1] deals with MDA-MB-231 inoculated nude mice. In words: nude mice xenograft tumor model. The format is in vivo, nude mice of BALB/c-nu species. To be noted: about 0.75 mg/Kg injected everyday. On the procedure:
The in vivo experiment was performed in a nude mice xenograft tumor model. The experimental animals were nude mice of BALB/c-nu species commercially obtained from the National Laboratory Animal Center (NLAC). The nude mice were raise in a germ-free box and the light application time was 7:00-19:00. Filtered air, sterilized water and feed were supplied to and naturally eaten by the nude mice. Female nude mice which matured in 8-10 weeks were used to perform the experiment. The breast tumor cell (2×10^6/100 μl) was injected into one side of each back part of 60 nude mice in a hypodermic injection manner. After about 10 days 1-3 mm tumor was grown on each back of the nude mice, the nude mice were randomly divided into 4 groups. Three groups of nude mice were fed with the active ingredient Antrodia camphorata in different doses. The tumor growth was observed and photographed every day. The tumor volume was measured every three days. The volume was calculated according to the equation provided by Osborne et al in 1987. The experimental animals were divided into the control group (not treated), the solvent group (only physiological saline was injected) and a group injected with the compound II (the dose was about 0.75 mg/Kg). The injection was performed everyday, and the animals were fed in normal conditions and photographed for record, so as to compare the tumor growth condition of experimental animals in each group.

Assay [2] relates to tumor inoculated nude mice. Description: histopathological examination (H&E staining) of tumor inoculated nude mice. It counts as in vivo. To be noted: 0.75 mg/Kg everyday, magnification 400×. How it is done:
In the histopathological examination of tumor inoculated nude mice, the inoculated nude mice were examined through a histopathological H&E staining method. The tumor and internal organs were embedded in paraffin and sliced into slides having a thickness of […] by a slicer. Then after deparaffinizing, rehydrating and renaturating, the slide was washed with water twice and stained with Hematoxylin solution for 30-50 s. Then the slide was treated with 0.1% acetic acid-water and washed with water twice. At last the slide was stained with Eosin for 100 s and mounted with Histoclad.

In assay [3] the test system is human normal breast cells MCF-10A. Description: MTT cell viability assay. It counts as cell-based. How it is done:
(§1) The breast tumor cells (MDA-MB-231, MDA-MB-435, MDA-MB-453, MDA-MB-468 and MCF-7) were commercially obtained from the bioresource collection and research center (BCRC), and were cultured in a 10% FBS-DMEM culture medium (i.e., a DMEM culture medium including 10% fetal bovine serum (FBS)). The human breast cell MCF-10A was cultured in a 5% FBS-DMEM culture medium (including F12, insulin, hydrocortisol and epidermal growth factor). An environment of 5% CO2 was kept in the incubator at a constant temperature of 37° C. When a certain number of cells were generated in culture, the culture medium was removed after being centrifuged for 10 min at a rate of 900 rpm. The culture medium was replaced in 24 h before the experiment, and the number of cells was counted by a hemocytometer.
(§2) The cell viability was determined by a method of […] (MTT assay). The test method for assaying cell viability refers to steps provided by Parada-Turska et al.
(§3) The breast tumor cells MDA-MB-231 were inoculated in a 24-well plate (2.5×10^5 cells/well), and the next day after cells were adhered to the wall of the plate, the cells were washed with PBS. 1% FBS-DMEM culture medium was then added so as to synchronize cells. The next day compound II having different concentrations were added into the wells, and the cells were subsequently cultured in an atmosphere of 5% CO2 at 37° C. for 24 h. The cells were washed with PBS once, and 400 μl MTT agent was added in each well so as to react for 4 h. Then 400 μl 10% SDS was added in each well so as to react for 12 h. 200 μl supernatant was taken from the well and then added into a 96-well microplate, so as to measure the absorbance at 570 nm.
(In general: Formazan colour is commonly taken as a measure of viable cells.)

The next assay concerns breast tumor cells MCF-7. In words: MTT cell viability assay. The format is cell-based. The conditions noted are these: Homo sapiens, MCF7. How it is done: as §1, §2, §3
Assay [4] concerns Rat Skin Tumor Cell (B16F10 cell strain). In words: MTT cell viability assay. It counts as cell-based. The conditions noted are these: Mus musculus, B16-F10.
In assay [5] the test system is ROS content in breast tumor cells MDA-MB-453. Description: reactive oxygen species method. The format is cell-based, human. To be noted: 40 μM. How it is done: In FIG. 12, the reactive oxygen species method was used to detect the effect of increased treatment doses of the compound II on the ROS content in breast tumor cells, and a photograph was taken at a 200× field under the fluorescence microscope. In the intracellular reactive oxygen species method, the cells were planted in a 24-well plate (5×10^4 cells/well). The next day after the cells were adhered to the wall, the cells were cultured in a serum free DMEM culture medium at an atmosphere of 5% CO2 in an incubator at 37° C. for 12 h. The compound II was added into the 1% FBS-DMEM culture medium, and the cells were cultured in the culture medium for 2 h. The cells were then washed with PBS. 100 ng/mL LPS was added to react with the cells, and then the cells were washed with PBS. […] The absorbance was measured by a fluorescence spectrometer, where the excitation wavelength was set as 485±20 nm, and the […] was set as 530±25 nm. […] Thus in the following the cells were treated with 40 μM the compound II and then the ROS content of cells was detected. […] FIG. 23 is a quantitative diagram showing the effect of increasing treatment time on the ROS content of breast tumor cells when the reactive oxygen species method was performed to detect the breast tumor cells treated with 40 μM the compound II. […]

The subject of assay [6] is Normal Rat Macrophage Cell (RAW264.7 cell strain). In words: MTT cell viability assay. It counts as cell-based.
The subject of assay [7] is human normal breast cells MCF-10A stimulated by TNF-α/TGF-β. In words: transwell invasion assay. The format is cell-based. The conditions noted are these: 2 μM with TNF-α/TGF-β 10 ng/ml simultaneously.

Turning to `COC1=C(OC)C(=O)C(C)=C(C)C1=O` [compound II], the “tumor a period after injection” value in assay [1] is given as “completely disappears”. Besides, the “tumor volume versus control group” value in assay [1] is given as “obviously smaller”. For the same compound, the tumor weight in assay [1] (control 0.455±0.328) turned out to be 0.039±0.028. Besides, the “mitosis state of tumor cells” value in assay [2] is given as “low mitosis state”. Besides, the IC50 in assay [3] (MCF-10A, 0-40 μM for 24 h, FIG. 1A, read-out: IC50 for inhibiting the normal breast cells MCF-10A) is about 25 µM; in assay [3] (viability, MCF-10A cell strain, Table 1, read-out: IC50), 24.1 µM; in the assay on breast tumor cells MCF-7 (0-40 μM for 24 h, FIG. 1A, read-out: IC50 for inhibiting the MCF-7), about 30 µM; in the assay on breast tumor cells MCF-7 (viability, MCF-7 cell strain, Table 1, read-out: IC50), 27.7 µM; in assay [4], 20.6 µM; in assay [6] it was 25.5 µM. The “content of oxygen species compared with the control group” value in assay [5] was “higher”.

As to `COC1=C(OC)C(=O)C(C)=CC1=O` [compound I], the “invasion of MCF-10A” value in assay [7] is reported as “significantly decreased”.

One may read the IC50 as the point on the concentration scale where inhibition reaches its midpoint.
